Experimental data reported in patent publication US12485110B2, “Use of ergothioneine for extending lifespan or improving healthspan” (NANJING NUTRABUILDING BIO-TECH CO., LTD., priority 2022, dated 2025).

Legend:
C. elegans [1] = assay: Growth and development (growth and toxicity) assay; assay type: in vivo
Excerpt: C. elegans was used in this study because it has advantages including having all the physiological properties of an animal, the ability to replicate human diseases, and a fast life cycle. The body of C. elegans is encased in a selectively permeable cuticle that only permits some compounds to be absorbed efficiently through the skin, so the most reliable mechanism for delivering compounds to the worms is through ingestion. Water-soluble compounds permeate the media and food and are readily taken up by the worms.
Making culturing plates with ergothioneine: C. elegans is usually grown in the laboratory using E. coli as a food source. Nematode Growth Medium (NGM) plates have been prepared by aseptically pouring NGM agar into petri plates. Ergothioneine was dissolved in water to make a working solution of 0.5 M and then mixed with E. coli liquid culture before seeding on NGM agar plates. The seeding spots were dried slowly, allowing ergothioneine to diffuse into the food bacteria and the agar for at least 24 hours before worms are introduced. The indicated ergothioneine dosages (0, 640 nM, 3.2 μM, 16 μM, 80 μM, 400 μM, 2 mM, and 10 mM) are based on the total volume of the plates.
High-resolution imaging and automated detection were used to precisely measure the growth rate of C. elegans worms from hatching to the first day of adulthood (total of 4 days). The C. elegans growth and development assay is highly sensitive and widely used in toxicology studies. Performing this test over a range of doses helps to identify a set of doses that have a physiological impact and exclude dose ranges that are likely too toxic to benefit lifespan.

C. elegans [2] = assay: Longevity-focused pathway analysis of differentially expressed genes; assay type: in vivo
Excerpt: This example describes identification of cellular pathways that are most likely modulated by treatment with Ergothioneine. To accomplish this, the genes differentially expressed after Ergothioneine treatment were first mapped to core established longevity pathways from the literature. Then the mapping was expanded to intersecting and supporting pathways. This placed the transcriptomic data within the context of well-characterized biological pathways, particularly several related to longevity.
Differentially expressed genes (DEGs) were mapped to known physiological pathways and then examined for coherent linkages between pathways related to longevity. These pathways were drawn from WormBase, KEGG, and other published databases and literature. For each condition, the DEGs were filtered on a more relaxed P value cutoff than the initial differential gene expression to capture broad evidence for a pathway from many small changes as opposed to highly significant individual genes of interest. For visualization, pathway genes were given a score based on the fold change weighted by the log of the P value, and this score was color mapped by magnitude and direction to produce the pathway diagram in FIG. 11.
FIG. 11 is a summary of pathway mapping to recognized aging-related pathways for Ergothioneine treatment. Colored score increments indicate degree of up-(red) or down-(blue) regulation weighted by the log of the P value such that each increment approximates one inverse log of P value. Uncolored objects indicate components that were not detected in the data. Top red indicates P value<0.0001 and so on. Solid lines indicate direct pathway connections and dashed lines indicate indirect or multi-step connections. Where lists of differentially expressed genes have been condensed into a module, the number of genes is indicated.
Starting with the canonical longevity pathways, the intersections with supporting pathways was then examined to expand the pool of evidence of whether a pathway is impacted by the treatment.

[3] = Ergothioneine treatment, pathway mapping FIG. 11

Structure (SMILES): C[N+](C)(C)[C@@H](Cc1c[nH]c(=S)[nH]1)C(=O)[O-] [Ergo, Ergothioneine]
- Number and size of worms (FIG. 1) (C. elegans [1]; 16 μM and 400 μM, L4 and day 1 adult): comparable number and size
- Number of worms (FIG. 1) (C. elegans [1]; 10 mM, L4 and day 1 adult stages): less worms
- Size of young adults (FIG. 2) (C. elegans [1]; 10 mM, day 1 adult stage): smaller than normal
- Growth rate (worm size, FIG. 2) (C. elegans [1]; concentrations up to 2 mM, day 1 adult stage): largely unaffected
- Growth rate (worm size, FIG. 2) (C. elegans [1]; concentrations up to 10 mM, L4 stage): largely unaffected
- superoxide dismutase (SOD-2) expression (C. elegans [2]; Ergo treatment): slightly decreased expression
- cpr-1 expression (C. elegans [2]; Ergothioneine treatment, autophagy): significantly downregulated
- daf-2 expression (C. elegans [2]; [3]): slightly downregulated
- daf-16 expression (C. elegans [2]; [3]): slight downregulation
- ife-2 (eIF4E) expression (C. elegans [2]; [3]): downregulated
- mtl-1 expression (C. elegans [2]; [3]): strongly downregulated
- skn-1 expression (C. elegans [2]; Ergothioneine treatment, stress response): slight downregulation
